In patent publication EP4768484A1, “HETEROCYCLIC FUSED RING COMPOUND, AND COMPOSITION AND USE THEREOF” (Shenzhen TargetRx, Inc., priority 2023, dated 2025):

Assays:
Assay type in all cases: cell-based
[1] = test system: K562 cells; assay: Cell growth inhibitory activity assay (CellTiter-Glo), K562 cells; conditions: Homo sapiens, 72 h, CTG cell viability
How it was run: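 Growth inhibition of human K562 cells, sourced from Nanjing Kebai (CBP60529), was assessed with Promega's CellTiter-Glo kit, which measures viability through ATP quantification. Log-phase cells went into the inner wells of 96-well plates, with PBS in edge wells, incubated overnight at 37 °C and 5% CO2, then exposed to serially diluted compound for 72 h.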

[2] = molecular target: T1, Ba/F3 BCR-ABL1 WT (Homo sapiens, UniProt P00519+P11274); assay: Cell growth inhibitory activity assay (CellTiter-Glo), Ba/F3 BCR-ABL1 WT cells; conditions: 72 h, CTG cell viability
T1 construct: BCR (N-terminal fusion partner of the oncoprotein); expressed in transfected cells; host or cells: Ba/F3 (lentiviral transduction, monoclonal line)
How it was run: (§1)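 Ba/F3 lines stably transduced by lentivirus with WT or mutant BCR-ABL1, alongside untransduced parental Ba/F3, were seeded and incubated overnight at 37 °C, 5% CO2, then exposed to serially diluted compound for 72 h. Viability was read as ATP by CellTiter-Glo luminescence against a day-of-dosing T0 plate; IC50 from four-parameter nonlinear fit.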

[3] = molecular target: T2, Ba/F3 BCR-ABL1 T315I (Homo sapiens, UniProt P00519+P11274, T315I); assay: Cell growth inhibitory activity assay (CellTiter-Glo), Ba/F3 BCR-ABL1 T315I cells; conditions: 72 h, CTG cell viability
T2 construct: BCR (N-terminal fusion partner of the oncoprotein); expressed in transfected cells; host or cells: Ba/F3 (lentiviral transduction, monoclonal line)
How it was run: as §1

[4] = test system: Ba/F3 parental cells; assay: Cell growth inhibitory activity assay (CellTiter-Glo), Ba/F3 parental cells; conditions: Mus musculus, BaF3, 72 h, CTG cell viability, read-out: IC50 Ba/F3 BCR-ABL1 Parental
How it was run: as §1

Row | Compound | IC50 [1] | IC50 [2] | IC50 [3] | IC50 [4]
1 | N#Cc1ccnc(-n2cc3c(n2)-c2cc(-c4cc(C(=O)Nc5ccc(OC(F)(F)Cl)cc5)c(N)nc4N4CC[C@@H](F)C4)cnc2C3)n1 [T-133, (R)-2-amino-N-(4-(chlorodifluoromethoxy)phenyl)-5-(2-(4-cvanopyrimidin-2-yl)-2,4-dihydropyrazolo[3',4':3,4]cyclopenta[1,2-b]pyridin-7-yl)-6-(3-fluoropyrrolidin-1-yl)nicotinamide] | ≤ 5 nM | ≤ 5 nM | ≤ 5 nM | > 1000 nM
2 | C[C@@H]1COCc2nc3cc(C(=O)Nc4ccc(OC(F)(F)Cl)cc4)cc(-c4cnc5c(c4)-c4c(cnn4-c4ncc6ccccc6n4)C5)c3n21 [T-82-A, (R)-N-(4-(chlorodifluoromethoxy)phenyl)-4-methyl-6-(1-(guinazolin-2-yl)-1,4-dihvdropyrazolo[3',4':3,4]cyclopenta[1,2-b]pyridin-7-yl)-3,4-dihydro-1H-benzo[4,5]imidazo[2,1-c][1,4]oxazine-8-carboxamide] | ≤ 5 nM | ≤ 5 nM | 5 to 50 nM | > 1000 nM
3 | Cc1ccc(-n2ncc3c2-c2cc(-c4cc(C(=O)Nc5ccc(OC(F)(F)Cl)cc5)cc5nc6n(c45)[C@H](C)COC6)cnc2C3)nn1 [T-104-B, (R)-N-(4-(chlorodifluoromethoxy)phenyl)-4-methyl-6-(1-(6-methylpyridazin-3-yl)-1,4-dihydropyrazolo[3',4':3,4]cyclopenta[1,2-b]pyridin-7-yl)-3,4-dihydro-1H-benzo[4,5]imidazo[2,1-c][1,4]oxazine-8-carboxamide] | ≤ 5 nM | ≤ 5 nM | 5 to 50 nM | > 1000 nM
4 | COc1ncc(-c2ccnc(-n3cc4c(n3)-c3cc(-c5cc(C(=O)Nc6ccc(OC(F)(F)Cl)cc6)cc6nc7n(c56)[C@H](C)COC7)cnc3C4)n2)cc1F [T-97, (R)-N-(4-(chlorodifluoromethoxy)phenyl)-6-(2-(4-(5-fluoro-6-methoxyoyridin-3-yl)pyrimidin-2-yl)-2,4-dihydropyrazolo[3',4':3,4]cyclopenta[1,2-b]pyridin-7-yl)-4-methyl-3,4-dihydro-1H-benzo[4,5]imidazo[2,1-c][1,4]oxazine-8-carboxamide] | ≤ 5 nM | ≤ 5 nM | ≤ 5 nM | > 1000 nM
5 | C[C@@H]1COCc2nc3cc(C(=O)Nc4ccc(OC(F)(F)Cl)cc4)cc(-c4cnc5c(c4)-c4nn(-c6nccc(-c7cncc(F)c7)n6)cc4C5)c3n21 [T-96, (R)-N-(4-(chlorodifluoromethoxy)phenyl)-6-(2-(4-(5-fluoropyridin-3-yl)pyrimidin-2-yl)-2,4-dihydropyrazolo[3',4':3,4]cyclopenta[1,2-b]pyridin-7-yl)-4-methyl-3,4-dihydro-1H-benzo[4,5]imidazo[2,1-c][1,4]oxazine-8-carboxamide] | ≤ 5 nM | ≤ 5 nM | ≤ 5 nM | > 1000 nM
6 | C[C@@H]1COCc2nc3cc(C(=O)Nc4ccc(OC(F)(F)Cl)cc4)cc(-c4cnc5c(c4)-c4nn(-c6nccc(-c7ccccc7)n6)cc4C5)c3n21 [T-81, (R)-N-(4-(chlorodifluoromethoxy)phenyl)-4-methyl-6-(2-(4-phenyloyrimidin-2-yl)-2,4-dihydropyrazolo[3',4':3,4]cyclopenta[1,2-b]pyridin-7-yl)-3,4-dihydro-1H-benzo[4,5]imidazo[2,1-c][1,4]oxazine-8-carboxamide] | ≤ 5 nM | ≤ 5 nM | ≤ 5 nM | > 1000 nM
7 | C[C@@H]1COCc2nc3cc(C(=O)Nc4ccc(OC(F)(F)Cl)cc4)cc(-c4ccc5c(c4)-c4nc(N)sc4C5)c3n21 [T-111, (R)-6-(2-amino-8H-indeno[1,2-d]thiazol-5-yl)-N-(4-(chlorodifluoromethoxy)phenyl)-4-methyl-3,4-dihydro-1H-benzo[4,5]imidazo[2,1-c][1,4]oxazine-8-carboxamide] | ≤ 5 nM | ≤ 5 nM | 5 to 50 nM | > 1000 nM
8 | C[C@@H]1COCc2nc3cc(C(=O)Nc4ccc(OC(F)(F)Cl)cc4)cc(-c4cnc5c(c4)-c4nn(-c6nccc(-c7ccc(C#N)nc7)n6)cc4C5)c3n21 [T-99, (R)-N-(4-(chlorodifluoromethoxy)phenyl)-6-(2-(4-(6-cyanopyridin-3-yl)pyrimidin-2-yl)-2,4-dihydropyrazolo[3',4':3,4]cyclopenta[1,2-b]pyridin-7-yl)-4-methyl-3,4-dihydro-1H-benzo[4,5]imidazo[2,1-c][1,4]oxazine-8-carboxamide] | ≤ 5 nM | ≤ 5 nM | ≤ 5 nM | > 1000 nM
9 | C[C@@H]1COCc2nc3cc(C(=O)Nc4ccc(OC(F)(F)Cl)cc4)cc(-c4cnc5c(c4)-c4nn(-c6ncc(C(F)(F)F)cn6)cc4C5)c3n21 [T-79, (R)-N-(4-(chlorodifluoromethoxy)phenyl)-4-methyl-6-(2-(5-(trifluoromethyl)pyrimidin-2-yl)-2,4-dihydropyrazolo[3',4':3,4]cyclopenta[1,2-b]pyridin-7-yl)-3,4-dihydro-1H-benzo[4,5]imidazo[2,1-c][1,4]oxazine-8-carboxamide] | ≤ 5 nM | ≤ 5 nM | ≤ 5 nM | > 1000 nM
10 | CC(=O)NC1CCC2c3cc(C(=O)Nc4ccc(OC(F)(F)Cl)cc4)cc(-c4cnccn4)c3N(C(C)C)C12 (racemic) [T-12, 3-acetamido-N-(4-(chlorodifluoromethoxy)phenyl)-4-isopropyl-5-(pyrazin-2-yl)-1,2,3,3a,4,8b-hexahydrocyclopenta[b]indole-7-carboxamide] | 5 to 50 nM | 5 to 50 nM | 50 to 1000 nM | > 1000 nM
11 | C[C@@H]1COCc2nc3cc(C(=O)Nc4ccc(OC(F)(F)Cl)cc4)cc(-c4ccc5c(c4)-c4n[nH]cc4C5)c3n21 [T-108, (R)-N-(4-(chlorodifluoromethoxy)phenyl)-6-(2,4-dihydroindeno[1,2-c]pyrazol-7-yl)-4-methyl-3,4-dihydro-1H-benzo[4,5]imidazo[2,1-c][1,4]xxazine-8-carboxamide] | ≤ 5 nM | ≤ 5 nM | > 1000 nM | > 1000 nM

The next lines start with results.

Row | IC50 [1] | Compound | IC50 [2] | IC50 [3] | IC50 [4]
12 | ≤ 5 nM | O=C(Nc1ccc(OC(F)(F)Cl)cc1)c1cc2c(c(-c3cnc4c(c3)-c3nn(-c5ncc(F)cn5)cc3C4)c1)C1(CCCCC1)C(=O)N2 [T-127, N-(4-(chlorodifluoromethoxy)phenyl)-4'-(2-(5-fluoropyrimidin-2-yl)-2,4-dihydropyrazolo[3',4':3,4]cyclopenta[1,2-b]pyridin-7-vl)-2'-oxospiro[cyclohexane-1,3'-indoline]-6'-carboxamide] | ≤ 5 nM | ≤ 5 nM | > 1000 nM
13 | ≤ 5 nM | CN1Cc2ncc(-c3cc(C(=O)Nc4ccc(OC(F)(F)Cl)cc4)cc4c3C3(CCCCC3)C(=O)N4)cc2C1=O [T-8, N-(4-(chlorodifluoromethoxy)phenyl)-4'-(6-methyl-5-oxo-6,7-dihydro-5H-pyrrolo[3,4-b]pyridin-3-yl)-2'-oxospiro[cyclohexane-1,3'-indoline]-6'-carboxamide] | ≤ 5 nM | 5 to 50 nM | > 1000 nM
14 | ≤ 5 nM | C[C@@H]1COCc2nc3cc(C(=O)Nc4ccc(OC(F)(F)Cl)cc4)cc(-c4cnc5c(c4)C(=O)/C(=C\N(C)C)C5)c3n21 [T-59, (R,Z)-N-(4-(chlorodifluoromethoxy)phenyl)-6-(6-((dimethylamino)methylene)-5-oxo-6,7-dihydro-5H-cyclopenta[b]pyridin-3-yl)-4-methyl-3,4-dihydro-1H-benzo[4,5]imidazo[2,1-c][1,4]oxazine-8-carboxamide] | ≤ 5 nM | 50 to 1000 nM | > 1000 nM
15 | ≤ 5 nM | C[C@@H]1COCc2nc3cc(C(=O)Nc4ccc(OC(F)(F)Cl)cc4)cc(-c4ccc5c(c4)C(=O)N(C)C5=O)c3n21 [T-62, (R)-N-(4-(chlorodifluoromethoxy)phenyl)-4-methyl-6-(2-methyl-1,3-dioxoisoindolin-5-yl)-3,4-dihydro-1H-benzo[4,5]imidazo[2,1-c][1,4]oxazine-8-carboxamide] | 5 to 50 nM | 50 to 1000 nM | > 1000 nM
16 | ≤ 5 nM | O=C(Nc1ccc(OC(F)(F)Cl)cc1)c1cnc(N2CC[C@@H](F)C2)c(-c2cnc3c(c2)-c2nn(-c4ncccn4)cc2C3)c1 [T-5, (R)-N-(4-(chlorodifluoromethoxy)phenyl)-6-(3-fluoropvrrolidin-1-yl)-5-(2-(pyrimidin-2-yl)-2,4-dihydropyrazolo[3',4':3,4]cyclopenta[1,2-b]pyridin-7-yl)nicotinamide] | ≤ 5 nM | ≤ 5 nM | > 1000 nM
17 | ≤ 5 nM | O=C(Nc1ccc(OC(F)(F)Cl)cc1)c1cc2c(c(-c3cnc4c(c3)-c3n[nH]cc3C4)c1)C1(CCCCC1)C(=O)N2 [T-125, N-(4-(chlorodifluoromethoxy)phenyl)-4'-(2,4-dihydropyrazolo[3',4':3,4]cyclopenta[1,2-b]pyridin-7-yl)-2'-oxospiro[cyclohexane-1,3'-indoline]-6'-carboxamide] | ≤ 5 nM | 5 to 50 nM | > 1000 nM
18 | ≤ 5 nM | CC(=O)Nc1nc2c(s1)Cc1ccc(-c3cc(C(=O)Nc4ccc(OC(F)(F)Cl)cc4)cc4nc5n(c34)[C@H](C)COC5)cc1-2 [T-112, (R)-6-(2-acetamido-8H-indeno[1,2-d]thiazol-5-yl)-N-(4-(chlorodifluoromethoxy)phenyl)-4-methyl-3,4-dihydro-1H-benzo[4,5]imidazo[2,1-c][1,4]oxazine-8-carboxamide] | ≤ 5 nM | 5 to 50 nM | > 1000 nM
